The experiment has as its system HK-2 cells. The experiment in a line: Cellular uptake (fluorescence microscope, FACS, ICP-MS). It counts as cell-based, human. As to conditions: 4 hours, non-ROS conditions. How it is done: For uptake studies, HK-2 cells (3×10^4 cells/well) were seeded onto Lab-Tek® Chamber Slides and cultured overnight. […] Untreated cells were used as a control. After incubation, the medium was aspirated, followed by performing DPBS wash and 4% paraformaldehyde (PFA) fixation. The cells were then counterstained with 4′,6-diamidino-2-phenylindole (DAPI). A fluorescence intensity of IR780 was analyzed by fluorescence microscope (Evos FL Auto 2, Thermo Fisher Scientific) to determine IR780 uptake by cells. To confirm the effect of ROS on intracellular distribution and release, ROS conditions were mimicked by treating the cells with 200 μM H2O2 for 2 hours or culturing the cells in a hypoxia chamber for 2 days before treatment. Cellular uptake was further quantified by flow cytometry. Briefly, 1×10^5 HK-2 cells/well were seeded in a 12-well plate and incubated overnight. The medium was aspirated, another sample was added and incubated for 4 hours. […] The cells were then re-suspended in FACS buffer containing 3% FBS, and fluorescence-activated cell sorting (FACS) was performed to determine the uptake capacity of each group. […] The cellular uptake of the final PTC-M nanocomposite was determined by ICP-MS analysis. […] Aqua regia (1 ml) was added to the final pellets for digestion, then the sample was diluted and analyzed for manganese content by ICP-MS. […]

Here are results for one substance from patent publication US20240390513A1, “PHARMACEUTICAL COMPOSITION FOR TREATING INFLAMMATORY DISEASES” (INDUSTRY FOUNDATION OF CHONNAM NATIONAL UNIVERSITY, priority 2021, published 2024).

On to IR780 iodide, for which the “cellular uptake (IR780 fluorescence, microscope)” value is “higher uptake rate regardless of nanomicelle loading”.
